This is an account of results in US9750844B2, “Composition for use in wound healing in burns” (ACADEMIA SINICA, priority 2014, dated 2017).

Entries after “also recorded” stand apart in the source; their conditions may differ.

Test [1] relates to MRSA. As to the kind of experiment: MRSA-infected full-thickness skin excision wound in mice: survival, wound closure, angiogenesis. The test is classed as in vivo, Balb/C mice. As to conditions: for survival of infected mice: wound infected with 10^6 CFU MRSA, topical treatment. Here is the method: Six to eight week old Balb/C male mice were used for the examples. MRSA culture and quantification were carried out, and suspensions were serially diluted and spread onto LB-agar plates in duplicate for 24 hours. After the incubation period, colony forming units (CFU) were counted, averaged, and expressed as CFU/ml. All animal handing procedures were in accordance with National Taiwan Ocean University (NTOU) guidelines. All procedures were approved by the Animal Care and Use Committee of NTOU.
The mice were housed individually to prevent fighting and further damage to the wounds, and were given ad libitum access to food and water. The mice were maintained under 12 h/12 h light/dark cycle at a room temperature, and adapted to the environment for at least a week before used in the experiments. Each mouse's hair was removed from the back by shaving, and a full-thickness excisional wound (1 cm in diameter) was created on the back of the mice.
(§1) Each wound was inoculated with 50 μl of broth mix containing 10^6 CFU of the indicated microorganism. The wounds were treated with the antimicrobial peptide according to the invention and collagen at 5 min after inoculation. At 30 min after treatment, wounds were covered with Tegaderm to maintain uniformity and to prevent the loss of the materials as treated. The wounds were examined at Day 3, 7, and 14 after the wounds were created, and the non-contaminated wounds were examined every other day. The wounds were examined to assess the transitions from inflammatory to regenerative and regenerative to resolving phases of the wound healing. At the end of the examination period, the animals were euthanized by CO2 inhalation and the wounds were assessed. For each experiment, four individuals were examined in each group at each time point. Each wound was measured and then removed from the animal, with unwounded skin taken from the contralateral abdomen as a control.
Tracings were taken immediately after injury. For uncontaminated wounds, wound size was determined every second day. For contaminated wounds, mice were euthanized at Day 3, 7, 14, or 17, and tracings of the wound edges were made. Wound areas were determined using the Macintosh Adobe Photoshop program and histological examination. The percentage of wound contraction was calculated as follows: % Wound contraction=(A0−At)/A0×100%
where A0 is the area of the original wound, and At is the area of the wound on Day 3, 7, 14, and 17.
Multidrug-resistant strains of Staphylococcus aureus (MRSA) commonly associated with human wound infections were selected to generate a polymicrobial solution. The initial inoculum was prepared by culturing aerobic bacteria in Tryptic Soy Broth (TSB) overnight at 37° C. Broths were subsequently centrifuged at 1000 rpm for 15 min, and resuspended in TSB with 15% glycerol, or chopped meat extract with 15% glycerol (for aerobic bacteria). The concentration was adjusted to 10^6 cfu/50 μl, and stored at −80° C. Prior to wound application, the bacterial stocks were re-mixed. Microbial load was determined by direct plating, followed by freeze-thaw and cfu enumeration, in parallel with inoculations. The inoculum was delivered by sterile pipettes to the center of open wounds. After euthanization (at Day 0, 3, 7, 14, or 17), two bisected tissue segments were used to determine microbial load using the protocol for human wound biopsy culture, as stated in the UPMC Clinical Microbiology Laboratory Procedure Manual. Tissue biopsies were weighed and placed in 1.5 ml of TSB, and then homogenized in a tissue grinder. A single drop of the homogenate was placed on the slide and Gram stained for rough assessment (if one or more bacteria are present within the oil immersion field, the expected count in the tissue is at least 10^5 cfu/g). Serial dilutions (1:10 (0.1+0.9)) of the tissue homogenate were made using distilled water. The cfu/g of tissue was calculated as follows: cfu/g=plate count (1/dilution)×10/wt. of homogenized tissue. […]

Test [2] concerns MRSA. As to the kind of experiment: Assessment of wound infection: bacterial load (CFU) and Gram staining of wound tissue. The conditions noted are these: for Gram staining of MRSA / Gram-positive microorganisms in wound sections: Day 3 after inoculation. The test is classed as in vivo, Balb/C mice. The method, then:
Tissue samples were homogenized in PBS. Serially diluted aliquots of homogenate were cultured on Luria-Bertani agar after incubation for 18 h at 37° C., and cfu/g tissue were subsequently calculated. A stable wound infection was defined as 10^6 cfu/g tissue.
(§2) Full-thickness tissue was harvested for microbial and histological analysis. Samples from each experiment were fixed in 4% buffered paraformaldehyde. Tissue samples were stained with hematoxylin/eosin or Giemsa, and immunohistochemistry (IHC) was analyzed by three independent investigators. Images were taken with a BX-51 microscope (Olympus, Japan).
Multidrug-resistant strains of Staphylococcus aureus (MRSA) commonly associated with human wound infections were selected to generate a polymicrobial solution. The initial inoculum was prepared by culturing aerobic bacteria in Tryptic Soy Broth (TSB) overnight at 37° C. Broths were subsequently centrifuged at 1000 rpm for 15 min, and resuspended in TSB with 15% glycerol, or chopped meat extract with 15% glycerol (for aerobic bacteria). […] Prior to wound application, the bacterial stocks were re-mixed. Microbial load was determined by direct plating, followed by freeze-thaw and cfu enumeration, in parallel with inoculations. The inoculum was delivered by sterile pipettes to the center of open wounds. After euthanization (at Day 0, 3, 7, 14, or 17), two bisected tissue segments were used to determine microbial load using the protocol for human wound biopsy culture, as stated in the UPMC Clinical Microbiology Laboratory Procedure Manual. Tissue biopsies were weighed and placed in 1.5 ml of TSB, and then homogenized in a tissue grinder. A single drop of the homogenate was placed on the slide and Gram stained for rough assessment (if one or more bacteria are present within the oil immersion field, the expected count in the tissue is at least 10^5 cfu/g). Serial dilutions (1:10 (0.1+0.9)) of the tissue homogenate were made using distilled water. The cfu/g of tissue was calculated as follows: cfu/g=plate count (1/dilution)×10/wt. of homogenized tissue.

The test system of test [3] is MCP-1, IL-6, TNF. The test can be described thus: Serum cytokine/chemokine ELISA in MRSA-infected wounded mice. The conditions noted are these: Epi-1 study, 24 h post-treatment. The test is classed as in vivo, Balb/C mice.
Description: (§3) Elisa kits for […] (Cat no. 555260, BD Biosciences, CA, USA), IL-6 (Cat no. 555240, BD Biosciences, CA, USA), and TNF (Cat no. 558534, BD Biosciences, CA, USA) were used to determine cytokine levels. Antibodies against macrophages (Cat no. 550282, BD Biosciences, CA, USA), monocytes (Cat no. 101301, BioLegend, London, UK), and VEGF (Cat no. 550549, BD Biosciences, CA, USA) were used for immunohistochemistry (IHC). Fish scale collagen peptides (FSCPs) were isolated from tilapia (Oreochromis sp.) by the Seafood Technology Division, Fisheries Research Institute, Council of Agriculture, Taiwan.
as §1
(An ELISA detects its analyte on a solid surface through an enzyme-linked reagent.)

For test [4], the system named is monocytes, macrophages, VEGF. The test can be described thus: Histology (H&E, Giemsa) and immunohistochemistry of wound tissue. Format: in vivo, Balb/C mice.
Description: as §3, §2

Test [5] relates to MRSA. As to the kind of experiment: Antimicrobial MIC/MBC assay against MRSA in vitro. The test is classed as cell-based, Staphylococcus aureus. The conditions noted are these: bacterial proliferation by optical density at 600 nm. The method, then:
Minimum inhibitory concentration (MIC) and minimum bactericidal concentration (MBC) antimicrobial assays were performed. For MIC assessment, the antimicrobial peptide, Epi-1, was diluted to final concentrations of […], or 0.78 μg/ml. Twenty microliters of each dilution were mixed in a microtiter plate well with […] of the appropriate bacterial indicator suspension, and 160 μl of Trypticase Soy Broth (TSB) for S. aureus, to a total volume of 200 μl. Three replicates were examined for each S. aureus strain, compound, and concentration. Positive controls contained water instead of compounds, and negative controls contained compounds without bacterial suspensions. Microbial growth was automatically determined by optical density measurement at 600 nm (Bioscreen C, Labsystem, Helsinki, Finland). Microplates were incubated at 25° C. for plant pathogens and at 37° C. for food-borne bacterial strains. Absorbance readings were taken at hourly intervals over a 48 h period. Plates were shaken for 20 seconds before each measurement. The experiment was repeated twice.

With `COc1cccc(OC)c1C(=O)N[C@@H]1C(=O)N2[C@@H]1SC(C)(C)[C@@H]2C(=O)O` [methicillin], the wound closure time entry in test [1] (contaminated wounds, GE33 study (FIG. 8B)) was “lack of closure”. In test [1], the “survival of infected mice” value is recorded as “died within four days”. For the same compound, the “Gram staining of MRSA / Gram-positive microorganisms in wound sections” value in test [2] is given as “completely abolished”. Moreover, in test [2] (initial inoculum approximately 10^4 cfu/10 μl), the “wound flora at Day 3” value was “about 10^8 cfu/10 μl”. Also, in test [3], the “induction of IL-6 in serum” value was “unaffected” and the “induction of TNF-α in serum” value is reported as “unaffected”.
Consider `CN[C@H](CC(C)C)C(=O)N[C@H]1C(=O)N[C@@H](CC(N)=O)C(=O)N[C@H]2C(=O)N[C@H]3C(=O)N[C@H](C(=O)N[C@H](C(=O)O)c4cc(O)cc(O)c4-c4cc3ccc4O)[C@H](O)c3ccc(c(Cl)c3)Oc3cc2cc(c3O[C@@H]2O[C@H](CO)[C@@H](O)[C@H](O)[C@H]2O[C@H]2C[C@](C)(N)[C@H](O)[C@H](C)O2)Oc2ccc(cc2Cl)[C@H]1O` [vancomycin], for which the “survival of infected mice” value in test [1] was “survived”. In test [1] (wound infected with 10^6 cfu MRSA, 3, 7, 14 days), the “healing and re-epithelialization of excision region” value is “re-epithelialization observed”. In addition, the “colony counts between Days 7 and 17” value in test [2] (MRSA-contaminated wounds) is reported as “decreased”. In test [3], the “induction of IL-6 in serum” value is “significantly decreased” and the “induction of TNF-α in serum” value is on record as “significantly decreased”. In test [4] (histology of wounds), the “overall epidermal maturation, keratinization and regeneration of the epithelium” value is on record as “impairment in overall epidermal maturation”.
As for “Epinecidin-1 (GFIFHIIKGLFHAGKMIHGLV; grouper) [Epi-1]”, the “antibacterial efficacy against MRSA in vitro” value in test [5] is given as “good antibacterial efficacy”. In addition, the wound closure result in test [1] (MRSA-infected wound, compared to vancomycin-treated mice and control mice) is given as “faster”. Besides, in test [1] (MRSA-infected wounded skin, light microscopy), the “new blood vessel formation (angiogenesis)” value is recorded as “more prominent”. In addition, the “MRSA CFU in cultured injured skin sections” value in test [2] (24 h after treatment, compared to the control) is on record as “significantly reduced”. Besides, the “Gram staining of MRSA / Gram-positive microorganisms in wound sections” value in test [2] is “completely abolished; also recorded: more efficient at attenuating MRSA infection than vancomycin”. For the same compound, the “bacterial counts in cultured skin sections (CFU)” value in test [2] (MRSA-infected mice, compared with vancomycin) is listed as “significantly lower”. Besides, in test [3], the “MCP-1 induction by MRSA in serum” value is on record as “decreased”, the “induction of IL-6 in serum” value is listed as “significantly decreased” and the “induction of TNF-α in serum” value is “significantly decreased”. In test [4] (infected wound, Day 3), the “IHC staining of VEGF” value was “clearly reduced”, the “IHC staining/infiltration of macrophages” value is recorded as “clearly reduced” and the “IHC staining/infiltration of monocytes” value was “clearly reduced”. Further, the “accumulation/recruitment of monocytes (Giemsa staining)” value in test [4] (wounded area tissue sections, MRSA-infected) is “reduced their recruitment”.
